Columns and labels:
LOXL2 = target: T1, LOXL2 (Homo sapiens, UniProt Q9Y4K0); assay: Time dependency of LOXL2 inhibition; format: biochemical
T1 sequence (Q9Y4K0 26-774): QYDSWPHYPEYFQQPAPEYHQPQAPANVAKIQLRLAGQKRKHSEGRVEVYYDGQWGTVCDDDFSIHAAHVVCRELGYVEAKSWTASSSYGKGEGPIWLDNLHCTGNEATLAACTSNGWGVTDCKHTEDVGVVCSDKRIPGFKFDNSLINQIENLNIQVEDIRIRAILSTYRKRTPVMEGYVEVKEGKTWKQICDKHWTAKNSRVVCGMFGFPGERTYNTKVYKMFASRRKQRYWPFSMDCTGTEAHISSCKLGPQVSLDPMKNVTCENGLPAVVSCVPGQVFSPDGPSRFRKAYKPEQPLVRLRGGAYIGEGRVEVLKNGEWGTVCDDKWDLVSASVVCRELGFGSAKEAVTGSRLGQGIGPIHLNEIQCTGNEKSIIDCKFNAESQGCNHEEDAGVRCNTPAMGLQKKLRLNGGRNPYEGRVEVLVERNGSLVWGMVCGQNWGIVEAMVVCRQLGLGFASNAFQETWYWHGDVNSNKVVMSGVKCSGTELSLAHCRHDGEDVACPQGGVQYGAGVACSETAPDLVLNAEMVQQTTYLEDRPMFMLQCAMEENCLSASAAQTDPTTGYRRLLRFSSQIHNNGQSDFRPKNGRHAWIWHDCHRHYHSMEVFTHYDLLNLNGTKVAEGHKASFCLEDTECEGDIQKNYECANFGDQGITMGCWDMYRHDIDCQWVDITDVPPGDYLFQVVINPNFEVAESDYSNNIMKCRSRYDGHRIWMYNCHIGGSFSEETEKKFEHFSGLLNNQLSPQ
Description: (§1) The measurement of the enzymatic activity of all lysyl oxidase family members was based on the detection of hydrogen peroxide with an Amplex-Red oxidation assay, as described in Zhou et al.[1]; miniaturised in 384 well format, with the appropriate combination of substrate and assay buffer for each individual enzyme. After a 30 minute pre-incubation of the enzyme at 37 °C with the test compound (or with different incubation times for the time-dependency assay), one volume of reaction mixture containing 120 μM Amplex Red (AR) (Life Technologies), 1.5 U/mL horseradish peroxidase (HRP) (Sigma-Aldrich) and the specific substrate was added to each sample. The relative fluorescence units (RFU) were then measured every 2.5 minutes for 30 minutes at 37°C, excitation 565 nm and emission 590, on a BMG Clariostar Microplate Reader. All the substrates were used at concentrations corresponding to their Km towards the corresponding enzyme, or with a range of different concentrations for the substrate competition experiments.
Time-dependent inhibition of the target by the compound was assessed by pre-incubation of 25 uL of target enzyme at 37 °C in a 384-well plate. An 11-point dilution was carried out of the test compound followed by its addition at 0.5 uL to the enzyme plate at different time points (0 minutes, 15 minutes, 30 minutes, 1hour, 2 hours and 4 hours unless otherwise stated in the graph). At the last time point, the reaction mixture was added and the relative fluorescence was measured.

Recombinant dog LOXL2 = target: T2, Recombinant dog LOXL2 (Canis lupus familiaris, UniProt A0A8I3P9Y5); assay: Amplex-Red fluorometric enzymatic activity assay, recombinant dog LOXL2; format: biochemical; conditions: 30 minute pre-incubation; average of at least three experiments
T2 construct: made in house; host or cells: HEK-293 clones provided by Dr. Fernando Rodríguez Pascual
Description: (§2) The measurement of the enzymatic activity of all lysyl oxidase family members was based on the detection of hydrogen peroxide with an Amplex‐Red oxidation assay, as described in Zhou et al26 Recombinant human semicarbazide sensitive amine oxidase (SSAO/VAP1), diamine oxidase (DAO) and monoamine oxidases A and B (MAO‐A and MAO‐B) assays were performed as previously described.27 For detailed enzymatic procedures, see supporting information.
as §1, with “All the substrates were used at concentrations corresponding to their Km towards the corresponding enzyme, or with a range of different concentrations for the substrate competition experiments.” left out

Adenosine A2A = Adenosine A2A (Homo sapiens, UniProt P29274); assay: Eurofins Hit Profiling Screen; format: binding; conditions: 10 μmol/L
Adrenergic α1A = Adrenergic α1A (Rattus norvegicus, UniProt P43140); assay: Eurofins Hit Profiling Screen; format: binding; conditions: 10 μmol/L
Native human LOXL2 = target: T3, Native human LOXL2 (Homo sapiens, UniProt Q9Y4K0); assay: Amplex-Red fluorometric enzymatic activity assay, native human LOXL2 (IMR90 conditioned medium); format: biochemical; conditions: 30 minute pre-incubation; average of at least three experiments
T3 construct: separating LOXL2 in the portion at higher molecular weight; host or cells: IMR90 conditioned medium
Description: as §2
as §1, with “All the substrates were used at concentrations corresponding to their Km towards the corresponding enzyme, or with a range of different concentrations for the substrate competition experiments.” left out

Adenosine A1 = Adenosine A1 (Homo sapiens, UniProt P30542); assay: Eurofins Hit Profiling Screen; format: binding; conditions: 10 μmol/L
Prostanoid EP4 = Prostanoid EP4 (Homo sapiens, UniProt P35408); assay: Eurofins Hit Profiling Screen; format: binding; conditions: 10 μmol/L
Prostanoid EP4, sequence (P35408 whole entry): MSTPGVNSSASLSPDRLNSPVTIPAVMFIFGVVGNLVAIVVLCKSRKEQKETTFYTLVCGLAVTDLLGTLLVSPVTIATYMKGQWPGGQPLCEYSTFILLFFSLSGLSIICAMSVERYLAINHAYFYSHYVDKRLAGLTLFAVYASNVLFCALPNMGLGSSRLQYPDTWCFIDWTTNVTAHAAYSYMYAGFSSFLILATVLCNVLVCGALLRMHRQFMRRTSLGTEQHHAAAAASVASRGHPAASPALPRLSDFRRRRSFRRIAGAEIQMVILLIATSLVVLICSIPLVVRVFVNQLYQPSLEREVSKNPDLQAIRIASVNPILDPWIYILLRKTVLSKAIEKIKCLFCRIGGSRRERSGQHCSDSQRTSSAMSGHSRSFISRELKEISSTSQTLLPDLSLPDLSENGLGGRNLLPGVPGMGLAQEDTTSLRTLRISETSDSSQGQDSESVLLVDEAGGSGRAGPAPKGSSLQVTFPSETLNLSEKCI

T2 sequence (A0A8I3P9Y5 1-777): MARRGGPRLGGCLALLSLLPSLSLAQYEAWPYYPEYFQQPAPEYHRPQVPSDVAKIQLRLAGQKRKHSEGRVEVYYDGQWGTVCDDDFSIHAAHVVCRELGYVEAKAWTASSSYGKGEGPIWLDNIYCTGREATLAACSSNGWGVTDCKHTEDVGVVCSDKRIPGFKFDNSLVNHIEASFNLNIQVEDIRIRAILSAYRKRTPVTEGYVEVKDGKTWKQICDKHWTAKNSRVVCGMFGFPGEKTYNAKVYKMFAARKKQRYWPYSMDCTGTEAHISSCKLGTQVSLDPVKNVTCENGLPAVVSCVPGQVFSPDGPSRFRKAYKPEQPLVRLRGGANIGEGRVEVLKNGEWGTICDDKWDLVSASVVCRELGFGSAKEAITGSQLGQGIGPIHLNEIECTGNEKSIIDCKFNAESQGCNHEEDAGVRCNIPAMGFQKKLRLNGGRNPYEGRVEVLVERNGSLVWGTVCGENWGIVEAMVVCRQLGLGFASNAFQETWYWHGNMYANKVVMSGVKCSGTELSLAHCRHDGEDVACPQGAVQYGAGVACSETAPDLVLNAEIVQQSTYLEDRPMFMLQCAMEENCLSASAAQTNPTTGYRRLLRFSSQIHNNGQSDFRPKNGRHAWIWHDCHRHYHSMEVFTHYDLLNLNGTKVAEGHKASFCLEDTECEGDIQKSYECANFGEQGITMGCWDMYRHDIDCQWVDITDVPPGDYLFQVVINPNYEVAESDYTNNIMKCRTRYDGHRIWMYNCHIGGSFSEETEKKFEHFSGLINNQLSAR
Adenosine A2A, sequence (P29274 whole entry): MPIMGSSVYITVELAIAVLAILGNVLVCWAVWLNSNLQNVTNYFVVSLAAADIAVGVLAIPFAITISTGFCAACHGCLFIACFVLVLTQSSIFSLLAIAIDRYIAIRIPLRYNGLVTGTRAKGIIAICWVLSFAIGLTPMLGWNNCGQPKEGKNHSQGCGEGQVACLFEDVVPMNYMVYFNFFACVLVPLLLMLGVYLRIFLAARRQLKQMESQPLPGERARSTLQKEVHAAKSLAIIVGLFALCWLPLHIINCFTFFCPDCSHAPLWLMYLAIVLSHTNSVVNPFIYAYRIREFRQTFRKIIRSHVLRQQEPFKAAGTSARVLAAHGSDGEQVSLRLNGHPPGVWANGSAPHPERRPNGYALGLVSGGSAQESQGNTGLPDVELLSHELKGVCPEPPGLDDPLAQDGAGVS
Adenosine A1, sequence (P30542 whole entry): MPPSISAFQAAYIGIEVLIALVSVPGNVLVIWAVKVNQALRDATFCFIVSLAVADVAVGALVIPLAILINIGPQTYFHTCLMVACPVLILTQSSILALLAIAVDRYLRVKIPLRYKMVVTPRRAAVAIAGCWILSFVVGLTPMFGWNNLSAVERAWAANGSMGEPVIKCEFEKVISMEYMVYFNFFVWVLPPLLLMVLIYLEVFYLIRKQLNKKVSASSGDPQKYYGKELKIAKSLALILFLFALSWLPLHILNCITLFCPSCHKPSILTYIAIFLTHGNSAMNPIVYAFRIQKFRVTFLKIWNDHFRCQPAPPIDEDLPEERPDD
Adrenergic α1A, sequence (P43140 whole entry): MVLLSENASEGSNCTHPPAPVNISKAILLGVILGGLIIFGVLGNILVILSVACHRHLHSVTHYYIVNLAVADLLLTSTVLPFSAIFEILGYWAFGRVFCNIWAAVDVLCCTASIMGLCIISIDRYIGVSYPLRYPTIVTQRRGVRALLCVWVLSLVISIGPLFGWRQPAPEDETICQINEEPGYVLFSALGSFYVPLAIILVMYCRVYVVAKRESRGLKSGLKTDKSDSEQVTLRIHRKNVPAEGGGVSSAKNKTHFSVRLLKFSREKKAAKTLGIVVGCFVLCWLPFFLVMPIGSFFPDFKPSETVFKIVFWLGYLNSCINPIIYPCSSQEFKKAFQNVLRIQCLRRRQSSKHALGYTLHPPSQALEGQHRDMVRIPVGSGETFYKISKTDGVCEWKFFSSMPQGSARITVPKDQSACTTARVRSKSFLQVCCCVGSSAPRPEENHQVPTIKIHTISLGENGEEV

Compound: Cc1c(-c2cccc(S(=O)(=O)N(C)C)c2)c2ncccc2n1C/C(F)=C/CN.Cl.Cl [PXS-5153A]
- time to complete inhibition of the enzyme (LOXL2; at 10xIC50): ≤ 15 min
- time until enzymatic activity almost entirely blocked (LOXL2; judged by the shift in the concentration response curves): ≤ 15 min
- time-dependent LOXL2 inhibition (LOXL2; longer incubation with the enzyme): increased potency upon longer incubation with the enzyme
- IC50 (Recombinant dog LOXL2): 0.009 µM
- pIC50 ± SD (Recombinant dog LOXL2): 8.04 ± 0.05
- % inhibition (Adenosine A2A): 0%
- % inhibition (Adrenergic α1A): 20%
- IC50 (Native human LOXL2): 0.038 µM
- pIC50 ± SD (Native human LOXL2): 7.4 ± 0.12
- % inhibition (Adenosine A1): 9%
- % inhibition (Prostanoid EP4): 11%

Source: paper PMC6378217, “The lysyl oxidase like 2/3 enzymatic inhibitor, PXS‐5153A, reduces crosslinks and ameliorates fibrosis” (Journal of Cellular and Molecular Medicine, 2018)
